Results taken from patent publication EP1073651B1, “INDOLYL DERIVATIVES AS SEROTONERGIC AGENTS” (Wyeth, priority 1998, dated 1999).
Where two headings read alike, the source gives them in different places.

Target: T1, serotonin transporter (Rattus norvegicus, UniProt P31652)
T1 construct: from tissue; host or cells: frontal cortex membranes of male Sprague-Dawley rats
Test: Displacement of specifically bound 3H-paroxetine from rat cortical membranes (affinity for the serotonin transporter)
Assay type: binding
Procedure: The affinity of drugs for the serotonin transporter was determined by assessing the ability of agents to displace specifically bound 3H-paroxetine binding from rat cortical membranes. […] Briefly, frontal cortical membranes prepared from male S.D. rats were incubated with ^3H-paroxetine (0.1 nM) for 60 min at 25°C. All tubes also contained either vehicle, test compound (one to eight concentrations), or a saturating concentration of fluoxetine (10 µM) to define […]. All reactions are terminated by the addition of ice cold Tris buffer followed by rapid filtration using a Tom Tech filtration device to separate bound from free ^3H-paroxetine. […] Nonspecific binding was determined using fluoxetine.

[1] = compounds of formula 1, frontal cortical membranes from male S.D. rats, 3H-paroxetine 0.1 nM, 60 min at 25°C, Ki from IC50 by Cheng and Prusoff, read-out: Inhibition of [3H]-Paroxetine binding Ki

T1 sequence (P31652 whole entry): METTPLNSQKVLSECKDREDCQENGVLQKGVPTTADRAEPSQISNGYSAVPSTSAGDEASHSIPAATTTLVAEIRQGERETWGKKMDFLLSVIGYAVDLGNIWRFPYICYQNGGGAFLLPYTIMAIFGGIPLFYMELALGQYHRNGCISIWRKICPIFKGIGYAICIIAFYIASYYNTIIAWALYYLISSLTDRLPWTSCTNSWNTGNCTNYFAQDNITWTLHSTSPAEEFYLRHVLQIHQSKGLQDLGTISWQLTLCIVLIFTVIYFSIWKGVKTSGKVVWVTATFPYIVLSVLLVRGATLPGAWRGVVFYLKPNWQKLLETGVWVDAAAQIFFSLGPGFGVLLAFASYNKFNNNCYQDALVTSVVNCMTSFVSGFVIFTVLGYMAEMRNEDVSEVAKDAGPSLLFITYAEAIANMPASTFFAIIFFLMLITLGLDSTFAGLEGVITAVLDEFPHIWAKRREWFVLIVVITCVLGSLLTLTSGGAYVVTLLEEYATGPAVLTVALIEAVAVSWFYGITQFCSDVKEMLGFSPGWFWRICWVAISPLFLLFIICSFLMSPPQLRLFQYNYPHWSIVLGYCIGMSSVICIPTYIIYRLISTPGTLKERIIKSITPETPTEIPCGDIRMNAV

SMILES	Ki [nM]	Ki [1] [nM]
COc1ccccc1N1CCN(CCN2CC=C(c3c[nH]c4ccccc34)CC2)CC1 [Example 6, 3-(1-{2-[4-(2-methoxyphenyl)piperazin-1-yl]ethyl} 1,2,3,6-tetrahydropyridin-4-yl)-1H-indole]	10	
COc1ccccc1N1CCN(CCN2CCC(Cc3c[nH]c4ccc(F)cc34)CC2)CC1 [Example 1, 5-Fluoro-3-(1-{2-[4-(2-methoxyphenyl)piperazin-1-yl]ethyl}piperidin-4-ylmethyl)-1H-indole]		4.8
COc1ccccc1N1CCN(CCN2CC=C(c3c[nH]c4ccc(F)cc34)CC2)CC1 [Example 7, 5-Fluoro-3-(1-{2-[4-(2-methoxyphenyl)piperazin-1-yl]ethyl} 1,2,3,6-tetrahydropyridin-4-yl)-1H-indole]	19	
COc1ccccc1N1CCN(CCCN2CCC(Cc3c[nH]c4ccc(F)cc34)CC2)CC1 [Example 3, 5-Fluoro-3-(1-{3-[4-(2-methoxyphenyl)piperazin-1-yl]propyl}piperidin-4-ylmethyl)-1H-indole]		1.2
